# Assay results reported in ChEMBL document CHEMBL3875196, “Novel pyrazolo[1,5-a]pyridines with improved aqueous solubility as p110α-selective PI3 kinase inhibitors” (Bioorg Med Chem Lett, 2017).
# Legend:
# [1] = Inhibition of recombinant mouse p110alpha/N-terminal His-tagged human p85alpha expressed in baculovirus infected Sf21 cells using L-alpha-phosphatidylinositol as substrate after 1 hr in presence of [gamma33]-ATP by thin layer chromatographic analysis
# [2] = Antiproliferative activity against wild type p110alpha expressing human NZB5 cells after 5 days by [3H]-thymidine incorporation assay; assay type: functional, cell-based
# [3] = Antiproliferative activity against wild type p110alpha expressing human NZOV9 cells after 5 days by [3H]-thymidine incorporation assay; assay type: functional, cell-based
# PI3K p110 beta/p85 alpha = PI3K p110 beta/p85 alpha (Homo sapiens, UniProt P42338); assay: Inhibition of recombinant human p110beta/N-terminal His-tagged human p85alpha expressed in baculovirus infected sf cells using L-alpha-phosphatidylinositol as substrate after 1 hr in presence of [gamma33]-ATP by thin layer chromatographic analysis
# PI3K p110 beta/p85 alpha, sequence (P27986 whole entry, canonical isoform): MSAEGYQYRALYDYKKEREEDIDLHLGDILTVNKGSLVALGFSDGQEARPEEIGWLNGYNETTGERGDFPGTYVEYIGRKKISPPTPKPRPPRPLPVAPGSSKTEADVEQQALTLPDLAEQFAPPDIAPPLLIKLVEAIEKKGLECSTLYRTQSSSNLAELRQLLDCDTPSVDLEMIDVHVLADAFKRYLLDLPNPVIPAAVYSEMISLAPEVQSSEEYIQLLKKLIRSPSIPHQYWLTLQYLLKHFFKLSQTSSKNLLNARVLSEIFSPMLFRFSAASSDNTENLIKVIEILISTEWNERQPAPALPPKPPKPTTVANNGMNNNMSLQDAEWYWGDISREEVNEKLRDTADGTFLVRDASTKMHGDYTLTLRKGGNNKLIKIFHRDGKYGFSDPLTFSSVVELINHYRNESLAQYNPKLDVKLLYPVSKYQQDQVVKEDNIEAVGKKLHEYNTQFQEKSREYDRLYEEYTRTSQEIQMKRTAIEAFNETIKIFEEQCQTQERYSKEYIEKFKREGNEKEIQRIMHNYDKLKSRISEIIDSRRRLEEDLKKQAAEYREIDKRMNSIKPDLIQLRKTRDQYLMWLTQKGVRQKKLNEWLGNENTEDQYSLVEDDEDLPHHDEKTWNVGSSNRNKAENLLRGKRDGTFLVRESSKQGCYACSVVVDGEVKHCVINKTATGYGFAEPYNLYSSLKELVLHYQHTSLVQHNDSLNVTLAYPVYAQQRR
# PI3K p110 beta/p85 alpha, sequence (P42338 whole entry, canonical isoform): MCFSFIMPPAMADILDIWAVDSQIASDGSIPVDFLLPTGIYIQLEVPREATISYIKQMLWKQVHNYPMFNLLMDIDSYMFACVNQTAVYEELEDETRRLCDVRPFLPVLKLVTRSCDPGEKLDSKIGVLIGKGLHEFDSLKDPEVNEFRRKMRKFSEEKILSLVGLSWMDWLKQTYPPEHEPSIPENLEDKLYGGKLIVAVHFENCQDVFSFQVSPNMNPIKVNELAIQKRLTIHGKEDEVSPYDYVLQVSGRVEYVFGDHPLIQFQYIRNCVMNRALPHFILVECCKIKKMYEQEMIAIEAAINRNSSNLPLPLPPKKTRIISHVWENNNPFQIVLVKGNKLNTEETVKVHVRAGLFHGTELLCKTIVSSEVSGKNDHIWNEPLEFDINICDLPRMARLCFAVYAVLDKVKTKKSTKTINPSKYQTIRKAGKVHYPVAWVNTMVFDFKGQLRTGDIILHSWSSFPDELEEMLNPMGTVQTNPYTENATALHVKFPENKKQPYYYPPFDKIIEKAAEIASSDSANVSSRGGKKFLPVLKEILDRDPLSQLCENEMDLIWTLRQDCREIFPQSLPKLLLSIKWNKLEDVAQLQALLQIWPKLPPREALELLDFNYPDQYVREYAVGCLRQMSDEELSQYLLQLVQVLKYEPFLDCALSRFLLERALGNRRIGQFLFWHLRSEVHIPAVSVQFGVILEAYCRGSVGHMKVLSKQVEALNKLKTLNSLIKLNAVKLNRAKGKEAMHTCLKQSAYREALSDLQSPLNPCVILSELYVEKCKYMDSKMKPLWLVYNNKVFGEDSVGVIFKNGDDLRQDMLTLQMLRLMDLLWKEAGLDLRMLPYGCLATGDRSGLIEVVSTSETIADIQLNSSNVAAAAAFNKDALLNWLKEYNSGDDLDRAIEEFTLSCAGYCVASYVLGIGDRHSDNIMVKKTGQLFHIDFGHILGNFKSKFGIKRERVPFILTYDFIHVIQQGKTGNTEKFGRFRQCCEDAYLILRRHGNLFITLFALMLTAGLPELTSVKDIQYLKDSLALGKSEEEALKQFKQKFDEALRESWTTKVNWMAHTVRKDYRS
# [4] = molecular target: T1, Phosphatidylinositol 4,5-bisphosphate 3-kinase catalytic subunit delta isoform (Homo sapiens, UniProt O00329); assay: Inhibition of p110delta (unknown origin) using L-alpha phosphatidylinositol as substrate after 1 hr in presence of [gamma33]-ATP by thin layer chromatographic analysis
# T1 sequence (O00329 whole entry): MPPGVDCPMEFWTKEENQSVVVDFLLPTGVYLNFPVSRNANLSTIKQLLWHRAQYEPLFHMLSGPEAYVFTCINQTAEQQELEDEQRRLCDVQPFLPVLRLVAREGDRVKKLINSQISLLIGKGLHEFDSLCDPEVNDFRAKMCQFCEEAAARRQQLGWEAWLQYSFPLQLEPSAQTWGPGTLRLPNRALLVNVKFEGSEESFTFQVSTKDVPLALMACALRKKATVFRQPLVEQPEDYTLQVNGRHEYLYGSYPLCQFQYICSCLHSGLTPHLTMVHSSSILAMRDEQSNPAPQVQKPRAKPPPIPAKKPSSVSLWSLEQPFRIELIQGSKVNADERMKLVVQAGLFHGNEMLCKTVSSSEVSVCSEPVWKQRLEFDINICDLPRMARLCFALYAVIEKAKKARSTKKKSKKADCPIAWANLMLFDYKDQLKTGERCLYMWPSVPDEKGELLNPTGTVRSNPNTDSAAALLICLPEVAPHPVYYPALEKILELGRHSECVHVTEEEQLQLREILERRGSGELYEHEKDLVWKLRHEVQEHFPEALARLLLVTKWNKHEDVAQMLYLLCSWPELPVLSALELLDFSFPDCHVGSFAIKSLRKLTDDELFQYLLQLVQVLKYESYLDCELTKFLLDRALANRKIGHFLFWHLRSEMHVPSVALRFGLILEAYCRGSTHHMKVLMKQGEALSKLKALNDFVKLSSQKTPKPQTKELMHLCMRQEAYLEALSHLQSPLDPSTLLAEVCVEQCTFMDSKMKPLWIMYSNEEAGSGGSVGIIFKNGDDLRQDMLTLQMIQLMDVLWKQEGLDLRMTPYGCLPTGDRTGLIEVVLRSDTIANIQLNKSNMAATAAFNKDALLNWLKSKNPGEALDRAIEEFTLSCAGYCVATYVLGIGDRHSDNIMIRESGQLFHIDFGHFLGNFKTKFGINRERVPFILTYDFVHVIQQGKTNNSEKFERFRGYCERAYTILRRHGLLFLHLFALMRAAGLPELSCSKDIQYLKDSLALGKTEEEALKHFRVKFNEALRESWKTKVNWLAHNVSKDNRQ
SMILES,IC50 [1] [nM],IC50 (PI3K p110 beta/p85 alpha) [nM],IC50 [4] [nM],IC50 [2] [nM],IC50 [3] [nM]
C/C(=N\NS(=O)(=O)c1cc([N+](=O)[O-])ccc1N(C)CCCN1CCOCC1)c1cnn2ccc(C#N)cc12,333,–,–,2400,9500
CN(C)CCN(C)c1ccc(C#N)cc1S(=O)(=O)N(C)/N=C/c1cnn2ccc(C#N)cc12,81,2000,380,55,47
CN(CCCN1CCOCC1)c1ccc(C#N)cc1S(=O)(=O)N(C)/N=C/c1cnn2ccc(C#N)cc12,240,> 1000,370,21,360
C/C(=N\N(C)S(=O)(=O)c1cc([N+](=O)[O-])ccc1N(C)CCN(C)C)c1cnn2ccc(Br)cc12,> 1000,–,> 1000,3500,930
C/C(=N\NS(=O)(=O)c1cc([N+](=O)[O-])ccc1N(C)CCCN1CCOCC1)c1cnn2ccc(Br)cc12,448,–,–,900,3200
CN(C)CCN(C)c1ccc([N+](=O)[O-])cc1S(=O)(=O)N(C)/N=C/c1cnn2ccc(Br)cc12,510,–,–,< 2,< 2
CN(Cc1ccccn1)c1ccc([N+](=O)[O-])cc1S(=O)(=O)N(C)/N=C/c1cnn2ccc(Br)cc12,180,> 1000,–,93,580
C/C(=N\N(C)S(=O)(=O)c1cc([N+](=O)[O-])ccc1N(C)CCCN1CCOCC1)c1cnn2ccc(C#N)cc12,> 1000,–,–,3300,2400
C/C(=N\N(C)S(=O)(=O)c1cc([N+](=O)[O-])ccc1N(C)Cc1ccccn1)c1cnn2ccc(Br)cc12,1040,–,–,2600,3000
C/C(=N\N(C)S(=O)(=O)c1cc([N+](=O)[O-])ccc1N(C)CCCN1CCOCC1)c1cnn2ccc(Br)cc12,> 1000,–,–,5100,3800
CN(C)CCN(C)c1ccc(C#N)cc1C(=O)N(C)/N=C/c1cnn2ccc(C#N)cc12,630,–,–,2900,6200
CN(CCCN1CCOCC1)c1ccc([N+](=O)[O-])cc1S(=O)(=O)N(C)/N=C/c1cnn2ccc(Br)cc12,370,–,–,94,670

# Second part, led by results:
IC50 [1] [nM],IC50 (PI3K p110 beta/p85 alpha) [nM],IC50 [4] [nM],SMILES,IC50 [2] [nM],IC50 [3] [nM]
51,900,676,C/C(=N\NS(=O)(=O)c1cc([N+](=O)[O-])ccc1N(C)CCN(C)C)c1cnn2ccc(C#N)cc12,460,2000
9,180,55,CN(CCc1cccnc1)c1ccc([N+](=O)[O-])cc1S(=O)(=O)N(C)/N=C/c1cnn2ccc(C#N)cc12,< 2,740
9,410,60,CN(CCc1ccccn1)c1ccc([N+](=O)[O-])cc1S(=O)(=O)N(C)/N=C/c1cnn2ccc(C#N)cc12,5,410
6,5600,950,CN(/N=C/c1cnn2ccc(C#N)cc12)S(=O)(=O)c1cc([N+](=O)[O-])ccc1OCc1ccccn1,1300,660
79,4200,450,CN(CCN1CCCCC1)c1ccc([N+](=O)[O-])cc1S(=O)(=O)N(C)/N=C/c1cnn2ccc(C#N)cc12,92,49
65,1000,280,CNCCN(C)c1ccc([N+](=O)[O-])cc1S(=O)(=O)N(C)/N=C/c1cnn2ccc(C#N)cc12,24,11
40,–,–,CN(Cc1ccccn1)c1ccc(C#N)cc1S(=O)(=O)N(C)/N=C/c1cnn2ccc(C#N)cc12,130,960
1.3,–,–,Cc1ccc([N+](=O)[O-])cc1S(=O)(=O)N(CCO)/N=C/c1cnn2ccc(C#N)cc12,–,140
